In ChEMBL document CHEMBL4507269, “Data for DCP probe BAY-386” (2021):

Assays:
[1] = target: Tyrosine-protein kinase ABL1 (Homo sapiens) (UniProt P00519); conditions: Compound concentration 1000.0 nM
[2] = target: cAMP-dependent protein kinase catalytic subunit PRKX (Homo sapiens) (UniProt P51817); conditions: Compound concentration 1000.0 nM
[3] = target: Cyclin-dependent kinase 9 (Homo sapiens) (UniProt P50750); conditions: Compound concentration 1000.0 nM
[4] = target: Calcium-dependent protein kinase 1 (Plasmodium falciparum) (UniProt P62344); conditions: Compound concentration 1000.0 nM
[5] = target: Ribosomal protein S6 kinase alpha-2 (Homo sapiens) (UniProt Q15349); conditions: Compound concentration 1000.0 nM
[6] = target: Serine/threonine-protein kinase pim-3 (Homo sapiens) (UniProt Q86V86); conditions: Compound concentration 1000.0 nM
[7] = target: Sodium-dependent dopamine transporter (Homo sapiens) (UniProt Q01959); conditions: Compound concentration 10.0 uM
[8] = target: Receptor-interacting serine/threonine-protein kinase 4 (Homo sapiens) (UniProt P57078); conditions: Compound concentration 1000.0 nM
[9] = target: Dual specificity mitogen-activated protein kinase kinase 6 (Homo sapiens) (UniProt P52564); conditions: Compound concentration 1000.0 nM
[10] = target: Casein kinase II subunit alpha' (Homo sapiens) (UniProt P19784); conditions: Compound concentration 1000.0 nM
[11] = target: 5'-AMP-activated protein kinase catalytic subunit alpha-2 (Homo sapiens) (UniProt P54646); conditions: Compound concentration 1000.0 nM
[12] = target: Non-receptor tyrosine-protein kinase TNK1 (Homo sapiens) (UniProt Q13470); conditions: Compound concentration 1000.0 nM
[13] = target: Serine/threonine-protein kinase tousled-like 1 (Homo sapiens) (UniProt Q9UKI8); conditions: Compound concentration 1000.0 nM
[14] = target: Phosphatidylinositol 4-phosphate 5-kinase type-1 gamma (Homo sapiens) (UniProt O60331); conditions: Compound concentration 1000.0 nM
[15] = target: Macrophage-stimulating protein receptor (Homo sapiens) (UniProt Q04912); conditions: Compound concentration 1000.0 nM
[16] = target: Casein kinase I isoform gamma-1 (Homo sapiens) (UniProt Q9HCP0); conditions: Compound concentration 1000.0 nM
[17] = target: SNF-related serine/threonine-protein kinase (Homo sapiens) (UniProt Q9NRH2); conditions: Compound concentration 1000.0 nM
[18] = target: Calcium/calmodulin-dependent protein kinase kinase 2 (Homo sapiens) (UniProt Q96RR4); conditions: Compound concentration 1000.0 nM
[19] = system: Mast/stem cell growth factor receptor Kit (Homo sapiens), P10721 [L576P]; conditions: Compound concentration 1000.0 nM
[20] = target: 5-hydroxytryptamine receptor 1B (Homo sapiens) (UniProt P28222); conditions: Compound concentration 10.0 uM
[21] = target: Serine/threonine-protein kinase ULK1 (Homo sapiens) (UniProt O75385); conditions: Compound concentration 1000.0 nM
[22] = target: Serine/threonine-protein kinase 17B (Homo sapiens) (UniProt O94768); conditions: Compound concentration 1000.0 nM
[23] = system: Phosphatidylinositol 4,5-bisphosphate 3-kinase catalytic subunit alpha isoform (Homo sapiens), P42336 [M1043I]; conditions: Compound concentration 1000.0 nM
[24] = target: Mitogen-activated protein kinase 7 (Homo sapiens) (UniProt Q13164); conditions: Compound concentration 1000.0 nM
[25] = target: Dual specificity tyrosine-phosphorylation-regulated kinase 2 (Homo sapiens) (UniProt Q92630); conditions: Compound concentration 1000.0 nM
[26] = target: Serine/threonine-protein kinase MRCK beta (Homo sapiens) (UniProt Q9Y5S2); conditions: Compound concentration 1000.0 nM
[27] = target: Serine/threonine-protein kinase pim-2 (Homo sapiens) (UniProt Q9P1W9); conditions: Compound concentration 1000.0 nM
[28] = target: Mitogen-activated protein kinase kinase kinase 4 (Homo sapiens) (UniProt Q9Y6R4); conditions: Compound concentration 1000.0 nM
[29] = target: Serine/threonine-protein kinase N2 (Homo sapiens) (UniProt Q16513); conditions: Compound concentration 1000.0 nM
[30] = target: T1, Prostaglandin E2 receptor EP3 subtype (Homo sapiens) (UniProt P43115); assay: EP3 (h) Eurofins-Cerep Cellular and Nuclear Receptor Functional Assays; conditions: Compound concentration 10.0 uM
T1 sequence (whole entry): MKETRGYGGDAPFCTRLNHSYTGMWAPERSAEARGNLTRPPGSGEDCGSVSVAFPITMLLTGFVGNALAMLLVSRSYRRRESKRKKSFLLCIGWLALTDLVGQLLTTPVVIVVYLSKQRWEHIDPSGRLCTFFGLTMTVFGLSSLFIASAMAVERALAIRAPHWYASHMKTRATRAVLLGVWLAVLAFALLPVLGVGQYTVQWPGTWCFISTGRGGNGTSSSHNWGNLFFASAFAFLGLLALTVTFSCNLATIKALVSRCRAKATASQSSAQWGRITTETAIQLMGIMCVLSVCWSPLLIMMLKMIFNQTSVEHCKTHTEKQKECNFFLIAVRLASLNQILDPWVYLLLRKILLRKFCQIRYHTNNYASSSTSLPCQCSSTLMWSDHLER

[31] = target: Ephrin type-A receptor 5 (Homo sapiens) (UniProt P54756); conditions: Compound concentration 1000.0 nM
[32] = target: Activin receptor type-1B (Homo sapiens) (UniProt P36896); conditions: Compound concentration 1000.0 nM
[33] = target: Substance-P receptor (Homo sapiens) (UniProt P25103); assay: NK1 (h) Eurofins-Cerep Cellular and Nuclear Receptor Functional Assays; conditions: Compound concentration 10.0 uM
[34] = target: Serine/threonine-protein kinase PAK 5 (Homo sapiens) (UniProt Q9P286); conditions: Compound concentration 1000.0 nM
[35] = target: Tyrosine-protein kinase SYK (Homo sapiens) (UniProt P43405); conditions: Compound concentration 1000.0 nM
[36] = target: BDNF/NT-3 growth factors receptor (Homo sapiens) (UniProt Q16620); conditions: Compound concentration 1000.0 nM
[37] = target: Receptor-interacting serine/threonine-protein kinase 2 (Homo sapiens) (UniProt O43353); conditions: Compound concentration 1000.0 nM
[38] = target: Serine/threonine-protein kinase Nek1 (Homo sapiens) (UniProt Q96PY6); conditions: Compound concentration 1000.0 nM
[39] = system: Tyrosine-protein kinase ABL1 (Homo sapiens), P00519 [H396P]; conditions: Compound concentration 1000.0 nM

Sequence of Substance-P receptor (Homo sapiens) (P25103 whole entry): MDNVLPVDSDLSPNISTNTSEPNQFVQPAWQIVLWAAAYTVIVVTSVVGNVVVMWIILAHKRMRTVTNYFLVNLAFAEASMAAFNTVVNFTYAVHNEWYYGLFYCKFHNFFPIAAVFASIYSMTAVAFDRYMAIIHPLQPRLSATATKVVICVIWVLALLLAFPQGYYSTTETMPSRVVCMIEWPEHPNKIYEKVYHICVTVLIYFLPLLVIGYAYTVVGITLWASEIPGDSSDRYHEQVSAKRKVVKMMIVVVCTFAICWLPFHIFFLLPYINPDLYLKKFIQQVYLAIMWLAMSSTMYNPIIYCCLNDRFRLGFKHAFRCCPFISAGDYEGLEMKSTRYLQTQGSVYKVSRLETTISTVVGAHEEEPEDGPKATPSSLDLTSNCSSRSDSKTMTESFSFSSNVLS
Sequence of Mast/stem cell growth factor receptor Kit (Homo sapiens), P10721 [L576P] (P10721 whole entry L576P): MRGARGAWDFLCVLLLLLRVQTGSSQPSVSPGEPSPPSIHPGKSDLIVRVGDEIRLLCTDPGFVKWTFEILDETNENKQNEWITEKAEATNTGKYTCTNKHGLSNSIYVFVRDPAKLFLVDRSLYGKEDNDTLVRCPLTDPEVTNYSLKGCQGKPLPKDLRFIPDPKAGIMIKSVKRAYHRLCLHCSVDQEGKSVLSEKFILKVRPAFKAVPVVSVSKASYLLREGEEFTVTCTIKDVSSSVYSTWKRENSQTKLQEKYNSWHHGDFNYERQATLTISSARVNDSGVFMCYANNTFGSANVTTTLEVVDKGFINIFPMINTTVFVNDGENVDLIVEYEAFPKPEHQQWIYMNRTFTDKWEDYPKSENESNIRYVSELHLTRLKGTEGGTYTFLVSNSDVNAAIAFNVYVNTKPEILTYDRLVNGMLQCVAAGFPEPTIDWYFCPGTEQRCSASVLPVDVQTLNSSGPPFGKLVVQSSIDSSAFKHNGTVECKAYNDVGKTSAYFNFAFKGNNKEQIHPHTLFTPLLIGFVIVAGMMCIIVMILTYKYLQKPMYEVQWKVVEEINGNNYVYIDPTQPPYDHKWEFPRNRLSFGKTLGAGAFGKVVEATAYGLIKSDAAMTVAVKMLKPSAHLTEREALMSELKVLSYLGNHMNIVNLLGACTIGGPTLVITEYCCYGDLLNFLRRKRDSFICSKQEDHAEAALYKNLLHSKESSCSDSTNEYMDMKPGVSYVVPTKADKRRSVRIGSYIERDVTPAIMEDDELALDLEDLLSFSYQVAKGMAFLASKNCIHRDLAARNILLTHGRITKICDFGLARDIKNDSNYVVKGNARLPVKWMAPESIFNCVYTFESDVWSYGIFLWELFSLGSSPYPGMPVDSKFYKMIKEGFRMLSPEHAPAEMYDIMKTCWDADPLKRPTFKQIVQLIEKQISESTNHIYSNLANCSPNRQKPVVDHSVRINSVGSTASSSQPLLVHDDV
Sequence of 5-hydroxytryptamine receptor 1B (Homo sapiens) (P28222 whole entry): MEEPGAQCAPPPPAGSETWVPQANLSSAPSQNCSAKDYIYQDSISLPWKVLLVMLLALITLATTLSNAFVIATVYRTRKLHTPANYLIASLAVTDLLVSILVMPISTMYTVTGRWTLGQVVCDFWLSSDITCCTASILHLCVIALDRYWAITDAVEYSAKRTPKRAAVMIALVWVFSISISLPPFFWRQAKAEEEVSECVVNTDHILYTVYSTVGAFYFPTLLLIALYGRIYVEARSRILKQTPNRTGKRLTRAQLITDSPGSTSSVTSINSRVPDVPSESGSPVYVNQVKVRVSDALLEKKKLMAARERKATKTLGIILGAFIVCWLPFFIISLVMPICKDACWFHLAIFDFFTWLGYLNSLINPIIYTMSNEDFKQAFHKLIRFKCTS
Sequence of Serine/threonine-protein kinase PAK 5 (Homo sapiens) (Q9P286 whole entry, looked up): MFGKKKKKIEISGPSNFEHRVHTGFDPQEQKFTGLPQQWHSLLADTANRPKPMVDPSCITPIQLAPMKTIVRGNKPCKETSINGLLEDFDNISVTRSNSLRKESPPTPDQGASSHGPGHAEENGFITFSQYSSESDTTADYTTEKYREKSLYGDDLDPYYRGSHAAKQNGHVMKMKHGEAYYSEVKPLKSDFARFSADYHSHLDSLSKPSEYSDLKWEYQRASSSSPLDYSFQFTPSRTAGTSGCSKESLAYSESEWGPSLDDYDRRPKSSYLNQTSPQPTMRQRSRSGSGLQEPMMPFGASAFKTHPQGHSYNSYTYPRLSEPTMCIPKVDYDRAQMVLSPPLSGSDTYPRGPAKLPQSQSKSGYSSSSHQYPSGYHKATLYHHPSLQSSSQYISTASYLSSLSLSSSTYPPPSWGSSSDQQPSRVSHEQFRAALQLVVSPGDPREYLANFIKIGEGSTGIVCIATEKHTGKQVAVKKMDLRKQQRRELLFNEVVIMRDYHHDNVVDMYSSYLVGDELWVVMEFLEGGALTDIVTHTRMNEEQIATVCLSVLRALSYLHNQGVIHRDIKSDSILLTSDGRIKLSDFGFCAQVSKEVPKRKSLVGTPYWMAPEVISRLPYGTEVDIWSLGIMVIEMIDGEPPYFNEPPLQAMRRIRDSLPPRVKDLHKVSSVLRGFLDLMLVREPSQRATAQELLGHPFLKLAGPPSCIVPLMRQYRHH
Sequence of BDNF/NT-3 growth factors receptor (Homo sapiens) (Q16620 32-822 limits assumed): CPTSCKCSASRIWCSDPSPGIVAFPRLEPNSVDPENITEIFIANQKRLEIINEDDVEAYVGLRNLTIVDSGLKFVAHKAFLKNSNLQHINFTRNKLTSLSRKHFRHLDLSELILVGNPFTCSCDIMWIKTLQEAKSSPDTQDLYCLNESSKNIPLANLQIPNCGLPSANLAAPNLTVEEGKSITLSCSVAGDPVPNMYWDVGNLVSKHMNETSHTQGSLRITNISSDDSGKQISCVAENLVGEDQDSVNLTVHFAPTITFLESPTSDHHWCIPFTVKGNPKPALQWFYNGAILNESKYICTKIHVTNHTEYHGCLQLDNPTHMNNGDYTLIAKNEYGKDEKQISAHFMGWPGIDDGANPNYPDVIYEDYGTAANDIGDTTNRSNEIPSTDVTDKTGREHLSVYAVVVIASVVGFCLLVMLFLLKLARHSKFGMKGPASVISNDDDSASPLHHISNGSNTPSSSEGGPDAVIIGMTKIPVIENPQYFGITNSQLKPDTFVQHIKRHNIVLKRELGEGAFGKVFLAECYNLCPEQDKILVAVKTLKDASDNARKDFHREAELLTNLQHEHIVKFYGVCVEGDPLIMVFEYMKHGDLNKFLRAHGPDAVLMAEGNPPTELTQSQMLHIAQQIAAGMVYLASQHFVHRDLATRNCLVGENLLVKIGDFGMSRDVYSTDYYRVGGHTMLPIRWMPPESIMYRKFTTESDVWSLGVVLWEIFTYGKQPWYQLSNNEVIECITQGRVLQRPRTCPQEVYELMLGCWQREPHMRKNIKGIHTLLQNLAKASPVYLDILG
Sequence of Dual specificity mitogen-activated protein kinase kinase 6 (Homo sapiens) (P52564 whole entry): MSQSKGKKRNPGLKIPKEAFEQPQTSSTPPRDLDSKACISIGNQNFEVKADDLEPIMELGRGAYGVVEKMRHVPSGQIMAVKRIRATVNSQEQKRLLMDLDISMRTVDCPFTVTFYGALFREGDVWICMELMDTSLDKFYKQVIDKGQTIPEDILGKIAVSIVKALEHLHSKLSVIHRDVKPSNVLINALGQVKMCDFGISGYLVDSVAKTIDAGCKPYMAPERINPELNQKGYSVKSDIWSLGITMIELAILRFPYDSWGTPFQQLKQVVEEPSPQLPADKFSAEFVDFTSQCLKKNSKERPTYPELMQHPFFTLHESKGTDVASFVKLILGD
Sequence of Ribosomal protein S6 kinase alpha-2 (Homo sapiens) (Q15349 whole entry): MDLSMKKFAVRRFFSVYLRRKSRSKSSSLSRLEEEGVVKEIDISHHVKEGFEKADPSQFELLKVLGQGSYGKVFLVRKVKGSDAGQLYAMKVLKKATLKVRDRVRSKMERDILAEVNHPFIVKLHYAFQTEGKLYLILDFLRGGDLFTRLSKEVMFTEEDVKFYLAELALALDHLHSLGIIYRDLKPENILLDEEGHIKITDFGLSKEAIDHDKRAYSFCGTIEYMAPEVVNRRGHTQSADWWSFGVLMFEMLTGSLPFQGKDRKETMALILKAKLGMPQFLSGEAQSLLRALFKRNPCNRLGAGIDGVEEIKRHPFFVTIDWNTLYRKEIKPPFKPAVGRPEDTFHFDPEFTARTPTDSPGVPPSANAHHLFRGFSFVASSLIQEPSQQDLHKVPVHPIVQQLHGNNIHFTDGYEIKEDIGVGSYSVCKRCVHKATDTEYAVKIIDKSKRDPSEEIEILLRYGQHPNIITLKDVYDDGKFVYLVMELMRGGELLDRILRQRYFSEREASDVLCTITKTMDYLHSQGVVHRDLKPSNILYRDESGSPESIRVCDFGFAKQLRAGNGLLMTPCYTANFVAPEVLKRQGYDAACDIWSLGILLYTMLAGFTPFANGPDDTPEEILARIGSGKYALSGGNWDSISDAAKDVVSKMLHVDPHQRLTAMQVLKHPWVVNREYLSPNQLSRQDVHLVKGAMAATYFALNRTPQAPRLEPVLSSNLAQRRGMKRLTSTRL
Sequence of Casein kinase II subunit alpha' (Homo sapiens) (P19784 whole entry, looked up): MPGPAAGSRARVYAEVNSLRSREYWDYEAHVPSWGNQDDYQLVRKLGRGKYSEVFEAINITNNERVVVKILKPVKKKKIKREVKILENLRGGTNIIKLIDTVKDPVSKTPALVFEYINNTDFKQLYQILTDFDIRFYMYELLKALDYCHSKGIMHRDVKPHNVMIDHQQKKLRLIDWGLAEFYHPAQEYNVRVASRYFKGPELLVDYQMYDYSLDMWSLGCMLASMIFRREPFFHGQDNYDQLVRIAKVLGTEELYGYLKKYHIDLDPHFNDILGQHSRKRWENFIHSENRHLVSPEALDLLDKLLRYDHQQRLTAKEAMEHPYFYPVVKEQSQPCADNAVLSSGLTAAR

O=C(N1CCS(=O)(=O)CC1)N1C[C@H](c2ccc(OC(F)(F)F)cc2)C[C@H](c2nc(C3CC3)no2)C1 [BAY-386] showed a residual activity [1] of 92%, a residual activity [2] of 100% and a residual activity [3] of 100%. It also gave a residual activity [4] of 92%, a residual activity [5] of 100% and a residual activity [6] of 100%. For the same compound, the inhibition [7] was 0.01%, the residual activity [8] was 97% and the residual activity [9] was 100%. The residual activity [10] was 100%, the residual activity [11] was 100% and the residual activity [12] was 100%. It also gave a residual activity [13] of 94%, a residual activity [14] of 100% and a residual activity [15] of 100%. For the same compound, the residual activity [16] was 100%, the residual activity [17] was 93% and the residual activity [18] was 100%. It also gave a residual activity [19] of 100%, an inhibition [20] of 30.8% and a residual activity [21] of 100%. It also gave a residual activity [22] of 100%, a residual activity [23] of 100% and a residual activity [24] of 100%. For the same compound, the residual activity [25] was 100%, the residual activity [26] was 100% and the residual activity [27] was 100%. For the same compound, the residual activity [28] was 83%, the residual activity [29] was 100% and the % Inhibition of Control Agonist Response (Mean n=2) [30] was -8%. It also gave a % of Control Agonist Response (Mean n=2) [30] of 4.5%, a residual activity [31] of 96% and a residual activity [32] of 100%. It also gave a % Inhibition of Control Agonist Response (Mean n=2) [33] of 23.3%, a % of Control Agonist Response (Mean n=2) [33] of 1.8% and a residual activity [34] of 100%. It also gave a residual activity [35] of 100%, a residual activity [36] of 94% and a residual activity [37] of 90%. The residual activity [38] was 100% and the residual activity [39] was 100%.
Cc1noc([C@H]2C[C@@H](c3ccc(C(F)(F)F)cc3)CN(C(=O)N3CCS(=O)(=O)C3)C2)n1 [BAY-448] showed a residual activity [1] of 100%, a residual activity [2] of 100% and a residual activity [3] of 100%. For the same compound, the residual activity [4] was 82%, the residual activity [5] was 100% and the residual activity [6] was 91%. For the same compound, the inhibition [7] was 5.46%, the residual activity [8] was 68% and the residual activity [9] was 100%. It also gave a residual activity [10] of 90%, a residual activity [11] of 66% and a residual activity [12] of 100%. The residual activity [13] was 100%, the residual activity [14] was 100% and the residual activity [15] was 100%. The residual activity [16] was 100%, the residual activity [17] was 100% and the residual activity [18] was 100%. It also gave a residual activity [19] of 100%, an inhibition [20] of 4.16% and a residual activity [21] of 85%. It also gave a residual activity [22] of 100%, a residual activity [23] of 100% and a residual activity [24] of 87%. It also gave a residual activity [25] of 100%, a residual activity [26] of 100% and a residual activity [27] of 100%. It also gave a residual activity [28] of 72%, a residual activity [29] of 100% and a % Inhibition of Control Agonist Response (Mean n=2) [30] of 0.6%. For the same compound, the % of Control Agonist Response (Mean n=2) [30] was -0.6%, the residual activity [31] was 100% and the residual activity [32] was 100%. It also gave a % Inhibition of Control Agonist Response (Mean n=2) [33] of 2.1%, a % of Control Agonist Response (Mean n=2) [33] of 0.3% and a residual activity [34] of 100%. For the same compound, the residual activity [35] was 96%, the residual activity [36] was 83% and the residual activity [37] was 100%. It also gave a residual activity [38] of 100% and a residual activity [39] of 100%.
